The record followed here is patent US8883782B2, “Spiro-tetracyclic ring compounds as beta-secretase modulators and methods of use” (Amgen Inc., priority 2010, dated 2014).

Like-named read-outs stand apart in the source and are kept apart here.

The subject of assay [1] is Aβ40 in conditioned medium of cells stably expressing Amyloid Precursor Protein (APP). Nature of the assay: In vitro BACE cell-based assay (Aβ40 in conditioned medium, sandwich ELISA). Conditions: read-out: HEK cell assay. The gist of the method:
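Conditioned medium from stably APP-expressing cells treated with compound dose series is assayed for Aβ40 by sandwich ELISA with time-resolved fluorescence detection. IC50 is calculated from percent inhibition of Aβ40 against compound concentration.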
For orientation: An ELISA detects its analyte on a solid surface through an enzyme-linked reagent.

Assay [2] concerns the target Beta Secretase enzyme (BACE) (Homo sapiens, UniProt P56817). Briefly: In vitro enzymatic BACE FRET (fluorescence resonance energy transfer) assay. It is filed as biochemical. Conditions: average IC50, enzyme assay; read-out: BACE 1 FRET assay. The gist of the method: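 Buffer 0.05 M acetate pH 4.2, 10% DMSO final, 100 uM genapol (sub-CMC); start with 50 nM FRET substrate; 1 h incubation; Tris stop; fluorescence read.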

The mark [3] stands for this setting: Homo sapiens, HEK293, average IC50, HEK cells.
The mark [4] stands for this setting: Homo sapiens, HEK293, average IC50.

Sequence of Beta Secretase enzyme (BACE) (P56817 46-501, species assumed): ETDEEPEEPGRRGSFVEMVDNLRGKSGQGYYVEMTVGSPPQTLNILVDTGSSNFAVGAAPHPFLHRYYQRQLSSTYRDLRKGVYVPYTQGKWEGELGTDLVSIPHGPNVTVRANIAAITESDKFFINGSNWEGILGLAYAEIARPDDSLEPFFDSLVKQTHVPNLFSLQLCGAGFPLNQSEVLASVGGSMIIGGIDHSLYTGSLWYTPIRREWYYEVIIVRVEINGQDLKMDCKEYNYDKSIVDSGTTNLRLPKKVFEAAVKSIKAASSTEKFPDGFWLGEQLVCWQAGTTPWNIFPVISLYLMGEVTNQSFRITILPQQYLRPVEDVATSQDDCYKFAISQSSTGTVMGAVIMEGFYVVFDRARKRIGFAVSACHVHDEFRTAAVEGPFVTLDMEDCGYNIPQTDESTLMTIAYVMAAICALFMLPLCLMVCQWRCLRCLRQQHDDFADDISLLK

In the case of `N#Cc1cccc(-c2ccc3c(c2)[C@@]2(COC(N)=N2)c2cc(N4CCOCC4)cc(F)c2O3)c1` [Example 564, 3-((4S)-2-amino-5′-fluoro-7′-(4-morpholinyl)spiro[1,3-oxazole-4,9′-xanthen]-2′-yl)benzonitrile], the IC50 in assay [1] (setting [3]) worked out at 9.2 nM; in assay [2], 1.6 nM.
For the compound `COC(C)(C)COc1cnc2c(c1)[C@]1(COC(N)=N1)c1cc(-c3cc(Cl)ccc3F)ccc1O2` [Example 319, (5S)-7-(5-chloro-2-fluorophenyl)-3-(2-methoxy-2-methylpropoxy)spiro[chromeno[2,3-b]pyridine-5,4′-[1,3]oxazol]-2′-amine], the IC50 worked out at 5.3 nM in assay [1] (setting [4]) and 0.7 nM in assay [2].
Turning to `Cc1ccc(Oc2ccc3c(c2)[C@@]2(COC(N)=N2)c2cc(C4=CCOCC4)cc(F)c2O3)nc1` [Example 1064, (4S)-2′-(3,6-dihydro-2H-pyran-4-yl)-4′-fluoro-7′-((5-methyl-2-pyridinyl)oxy)spiro[1,3-oxazole-4,9′-xanthen]-2-amine], the IC50 is 442 nM in assay [1] (setting [4]) and 21.1 nM in assay [2].
Turning to `NC1=N[C@@]2(CO1)c1cc(-c3cccnc3F)ccc1Oc1ncc(C#CC3(F)COC3)cc12` [Example 520, (5S)-3-((3-fluoro-3-oxetanyl)ethynyl)-7-(2-fluoro-3-pyridinyl)spiro[chromeno[2,3-b]pyridine-5,4′-[1,3]oxazol]-2′-amine], the IC50 is 13.9 nM in assay [1] (setting [3]) and 1.4 nM in assay [2].
Take `NC1=N[C@@]2(CO1)c1cc(-c3cccc(Cl)c3)ccc1Oc1ncc(-c3cnccn3)cc12` [Example 166, (5S)-7-(3-chlorophenyl)-3-(2-pyrazinyl)spiro[chromeno[2,3-b]pyridine-5,4′-[1,3]oxazol]-2′-amine]: the IC50 stood at 17.7 nM in assay [1] (setting [4]) and 1.8 nM in assay [2].
Take `NC1=N[C@@]2(CO1)c1cc(-c3c(F)ccnc3F)ccc1Oc1cnc([C@H]3CCCOC3)cc12` [Example 913, (5S)-7-(2,4-difluoro-3-pyridinyl)-3-((3R)-tetrahydro-2H-pyran-3-yl)spiro[chromeno[2,3-c]pyridine-5,4′-[1,3]oxazol]-2′-amine]: the IC50 in assay [1] (setting [3]) was 211 nM; in assay [2], 16.1 nM.
`NC1=N[C@@]2(CO1)c1cc(-c3cccnc3F)ccc1Oc1c2cc(N2CCC(F)(F)C2)nc1F` [Example 918, (S)-3-(3,3-difluoropyrrolidin-1-yl)-1-fluoro-7-(2-fluoropyridin-3-yl)-5′-H-spiro[chromeno[2,3-c]pyridine-5,4′-oxazol]-2′-amine]: the IC50 in assay [1] (setting [3]) is 4 nM; in assay [2], 0.2 nM.
On to “(4S)-4′-fluoro-7′-(2-fluoro-3-pyridinyl)-2′-((2S)-tetrahydro-2H-pyran-2-yl)spiro[1,3-oxazole-4,9′-xanthen]-2-amine [Example 219]”, for which the IC50 in assay [1] (average IC50) was determined as 6.2 nM; in assay [2] it was 0.9 nM.
For the compound `Cc1ccc(-c2cc3c(cn2)Oc2ccc(-c4cncc(Cl)c4)cc2[C@@]32COC(N)=N2)cn1` [Example 227, (5S)-7-(5-chloro-3-pyridinyl)-3-(6-methyl-3-pyridinyl)spiro[chromeno[2,3-c]pyridine-5,4′-[1,3]oxazol]-2′-amine], the IC50 stood at 7.1 nM in assay [1] (setting [4]) and 1.4 nM in assay [2].
In the case of `NC1=N[C@@]2(CO1)c1cc(-c3cccnc3F)ccc1Oc1c(F)cc(C3=CC(=O)OC3)cc12` [Example 801, 4-((4S)-2-amino-4′-fluoro-7′-(2-fluoro-3-pyridinyl)spiro[1,3-oxazole-4,9′-xanthen]-2′-yl)-2(5H)-furanone], the IC50 in assay [1] (setting [4]) is 170 nM; in assay [2], 2.2 nM.
Regarding `N#Cc1cccc(-c2ccc3c(c2)[C@@]2(COC(N)=N2)c2cc(C4=CCOCC4)ccc2O3)c1` [Example 195, 3-((4R)-2-amino-7′-(3,6-dihydro-2H-pyran-4-yl)spiro[1,3-oxazole-4,9′-xanthen]-2′-yl)benzonitrile], the results for the IC50 in assay [1] (setting [4]) and in assay [2] were 63.1 nM and 9.4 nM, respectively.
Regarding `NC1=N[C@@]2(CO1)c1cc(C#CC3CC3)ccc1Oc1cnc(C3=CCOCC3)cc12` [Example 159, (5S)-7-(cyclopropylethynyl)-3-(3,6-dihydro-2H-pyran-4-yl)spiro[chromeno[2,3-c]pyridine-5,4′-[1,3]oxazol]-2′-amine], the IC50 was 84 nM in assay [1] (setting [4]) and 4.9 nM in assay [2].
For the compound `CN1CCN(c2cc3c(cn2)Oc2ccc(-c4cccnc4F)cc2[C@@]32COC(N)=N2)CC1(C)C` [Example 529, (5S)-7-(2-fluoro-3-pyridinyl)-3-(3,3,4-trimethyl-1-piperazinyl)spiro[chromeno[2,3-c]pyridine-5,4′-[1,3]oxazol]-2′-amine], the IC50 in assay [1] (setting [3]) was determined as 4.4 nM; in assay [2], 8.9 nM.
For the compound `NC1=NC2(CO1)c1cc(-c3cccnc3F)ccc1Oc1c(F)cc(C3=CCOCC3)nc12` (stereo not shown) [Example 105, 2-(3,6-dihydro-2H-pyran-4-yl)-4-fluoro-8-(2-fluoropyridin-3-yl)-5′H-spiro[chromeno[3,2-b]pyridine-10,4′-oxazol]-2′-amine], the IC50 in assay [1] (setting [3]) was 14.4 nM; in assay [2], 3.5 nM.
Regarding `CN(C)c1ccc(-c2cc3c(cn2)Oc2ccc(-c4cccnc4F)cc2[C@@]32COC(N)=N2)cc1` [Example 567, (5S)-3-(4-(dimethylamino)phenyl)-7-(2-fluoro-3-pyridinyl)spiro[chromeno[2,3-c]pyridine-5,4′-[1,3]oxazol]-2′-amine], the IC50 in assay [1] (setting [3]) came to 74.6 nM; in assay [2], 4.6 nM.
As for `CC(C)(C#N)COc1cc(F)c2c(c1)[C@]1(COC(N)=N1)c1cc(-c3cncc(C#N)c3)ccc1O2` [Example 265, 5-((4S)-2-amino-7′-(2-cyano-2-methylpropoxy)-5′-fluorospiro[1,3-oxazole-4,9′-xanthen]-2′-yl)-3-pyridinecarbonitrile], the values for the IC50 in assay [1] (setting [4]) and in assay [2] were 4.7 nM and 0.8 nM, respectively.
Regarding `CC1(COc2cc(F)c3c(c2)[C@]2(COC(N)=N2)c2cc(-c4cccnc4)c(F)cc2O3)COC1` [Example 294, (4S)-3′,5′-difluoro-7′-((3-methyl-3-oxetanyl)methoxy)-2′-(3-pyridinyl)spiro[1,3-oxazole-4,9′-xanthen]-2-amine], the IC50 in assay [1] (setting [4]) is 612 nM; in assay [2] it was 61.1 nM.
Turning to `CC#Cc1cncc(-c2ccc3c(c2)[C@@]2(COC(N)=N2)c2cc(C4=CCCOC4)nc(F)c2O3)c1` [Example 758, (5S)-3-(5,6-dihydro-2H-pyran-3-yl)-1-fluoro-7-(5-(1-propyn-1-yl)-3-pyridinyl)spiro[chromeno[2,3-c]pyridine-5,4′-[1,3]oxazol]-2′-amine], the IC50 amounted to 2 nM in assay [1] (setting [4]) and 0.4 nM in assay [2].
`CC1(CCc2cc(F)c3c(c2)[C@]2(COC(N)=N2)c2cc(-c4cccnc4F)ccc2O3)COC1` [Example 101, (S)-4′-fluoro-7′-(2-fluoropyridin-3-yl)-2′-(2-(3-methyloxetan-3-yl)ethyl)-5H-spiro[oxazole-4,9′-xanthen]-2-amine]: the IC50 in assay [1] (setting [3]) is 4.5 nM; in assay [2], 0.5 nM.
For `COC(C)(C)CNc1cc2c(cn1)Oc1ccc(-c3cccnc3)cc1[C@@]21COC(N)=N1` [Example 409, (5S)-N~3~-(2-methoxy-2-methylpropyl)-7-(3-pyridinyl)spiro[chromeno[2,3-c]pyridine-5,4′-[1,3]oxazole]-2′,3-diamine] the same measures were 17.8 nM and 6.6 nM.
